Assay results published in PubChem BioAssay (NCI).
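Interpolation was linear, between the two tested concentrations surrounding the appropriate level; five concentrations were tested over 48 hours in 96-well plates. GI50 is the concentration that inhibits growth by half. TGI: concentration producing complete growth inhibition.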

Experiments:
Assay in all cases: growth of human tumour cells (NCI), 48 h
UO-31 renal = test system: UO-31 renal
OVCAR-3 ovarian = test system: OVCAR-3 ovarian
UACC-257 melanoma = test system: UACC-257 melanoma
HCT-15 colon = test system: HCT-15 colon
COLO 205 colon = test system: COLO 205 colon
HT29 colon = test system: HT29 colon
SNB-75 CNS = test system: SNB-75 CNS
A549 NSCLC = test system: A549 NSCLC
A498 renal = test system: A498 renal
MALME-3M melanoma = test system: MALME-3M melanoma

Row | Structure (SMILES) | TGI (UO-31 renal) [µM] | TGI (OVCAR-3 ovarian) [µM] | TGI (UACC-257 melanoma) [µM] | TGI (HCT-15 colon) [µM] | TGI (COLO 205 colon) [µM] | TGI (HT29 colon) [µM] | TGI (SNB-75 CNS) [µM] | TGI (A549 NSCLC) [µM] | TGI (A498 renal) [µM] | TGI (MALME-3M melanoma) [µM] | GI50 (UO-31 renal) [µM] | GI50 (OVCAR-3 ovarian) [µM] | GI50 (UACC-257 melanoma) [µM] | GI50 (HCT-15 colon) [µM] | GI50 (COLO 205 colon) [µM] | GI50 (HT29 colon) [µM] | GI50 (SNB-75 CNS) [µM] | GI50 (A549 NSCLC) [µM] | GI50 (A498 renal) [µM] | GI50 (MALME-3M melanoma) [µM]
1 | Clc1ccc(-n2nnc(C3=NCCN3)c2-c2ccccc2)cc1 | > 100 | > 100 | > 100 | > 100 | > 100 | > 100 | > 100 | > 100 | > 100 | > 100 |  |  |  |  |  |  |  |  |  | 
2 | COP(=O)(OC)C(NC(c1ccccc1)c1ccccc1)c1ccc2c(c1)OCO2 (stereo not given) | 53.9 | 50.2 | 89.7 | 95.1 | > 100 | 51.5 | 67.2 | > 100 | 44.2 | 58.9 | 21.8 | 22.1 | 31.4 | 30.1 | 52.2 | 19.9 | 30.5 | 27.3 | 22.8 | 27.4
3 | O=c1c2ccccc2c2ccccc2c(=O)n1-c1cc2c3ccccc3ccc2c2ccccc12 | > 100 | > 100 | > 100 | > 100 | > 100 | > 100 | > 100 | > 100 | > 100 | > 100 |  |  |  |  |  |  |  |  |  | 
4 | COC(=O)C(CCS(=O)(=O)CC(=O)C(=O)Nc1cccc(C(C)=O)c1)C(=O)OC | > 100 | > 100 | > 100 | > 100 | > 94.2 | > 100 | > 100 | > 100 | > 100 | > 100 |  |  |  |  |  |  |  |  |  | 
5 | Cc1ccc2c(c1)nc(C(=O)c1ccco1)c(C(F)(F)F)[n+]2[O-] | > 100 | > 100 | > 100 | > 100 | > 100 | > 100 | > 100 | > 100 | 3.06 | > 100 | 47.2 | > 100 | 63.4 | > 100 | > 100 | > 100 | 76.7 | > 100 | 1.66 | > 100
6 | COc1ccc(-n2c(SCc3cc(OC)c(OC)c(OC)c3)nc3ccc(C)cc3c2=O)c(OC)c1 | > 100 | 7.04 | > 100 | > 100 | 11.9 | > 100 | > 100 | > 100 | 40.3 | > 100 | 2.76 | 2.84 | 7.81 | 4.2 | 3.87 | 4.04 | 3.14 | 4.18 | 2.25 | 2.97
7 | CC12CCC3C(CC=C4CC(O)CCC43C)C1C/C(=C\N1CCCC1)C2=O (stereo not given) | > 100 | > 100 | > 100 | > 100 | > 100 | > 100 | > 100 | > 100 | > 100 | > 100 | 67.2 | 42.6 | > 100 | 87.1 | > 100 | > 100 | 41.5 | > 100 | > 100 | 71.5
